Experimental data as given in patent US9226916B2, “Pyrrolidine derivatives” (HOFFMANN-LA ROCHE INC., priority 2009, dated 2016).
Like-named read-outs stand apart in the source and are kept apart here.

Target: T1, recombinant human NK3 receptor (Homo sapiens, UniProt P29371)
T1 construct: expressed in transfected cells; host or cells: HEK293 cells, transient expression; membranes
T1 sequence (P29371 1-465): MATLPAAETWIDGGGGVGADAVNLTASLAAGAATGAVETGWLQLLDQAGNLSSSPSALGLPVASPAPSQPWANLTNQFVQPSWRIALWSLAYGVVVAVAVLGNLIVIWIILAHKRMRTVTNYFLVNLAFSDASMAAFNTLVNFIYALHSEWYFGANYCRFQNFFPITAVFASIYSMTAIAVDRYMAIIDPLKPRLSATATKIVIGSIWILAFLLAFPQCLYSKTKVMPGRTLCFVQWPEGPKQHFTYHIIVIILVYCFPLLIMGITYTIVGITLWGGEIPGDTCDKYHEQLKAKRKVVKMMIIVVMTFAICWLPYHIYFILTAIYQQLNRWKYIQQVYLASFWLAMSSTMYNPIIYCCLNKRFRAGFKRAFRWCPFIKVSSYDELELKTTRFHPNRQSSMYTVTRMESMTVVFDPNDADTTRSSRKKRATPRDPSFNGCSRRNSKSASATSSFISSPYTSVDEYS
Experiment: [3H]SR142801 competition binding assay

[1] = hNK-3 receptor affinity, membranes from HEK293 cells transiently expressing recombinant human NK3 receptor, [3H]SR142801, Cheng-Prussoff, read-out: Data Ki

## CN(C(=O)OCCC1CC1)[C@@H]1CN(C(=O)C2CCN(c3ccc(C#N)cn3)CC2)C[C@H]1c1ccc(Cl)cc1 [Example 219, [(3S,4R)-4-(4-Chloro-phenyl)-1-(5′-cyano-3,4,5,6-tetrahydro-2H-[1,2′]bipyridinyl-4-carbonyl)-pyrrolidin-3-yl]-methyl-carbamic acid 2-cyclopropyl-ethyl ester]
[1]
  Ki: 3.6 nM

## CN(C(=O)O[C@H]1CC[C@@H](C)CC1)[C@@H]1CN(C(=O)C2CCN(c3ccc(C#N)cn3)CC2)C[C@H]1c1ccc(Cl)cc1 [Example 220, [(3S,4R)-4-(4-Chloro-phenyl)-1-(5′-cyano-3,4,5,6-tetrahydro-2H-[1,2′]bipyridinyl-4-carbonyl)-pyrrolidin-3-yl]-methyl-carbamic acid 4-methyl-cyclohexyl ester]
  Ki: 42.8 nM

## CN(C(=O)O[C@H]1CC[C@H](C)CC1)[C@@H]1CN(C(=O)C2CCN(c3ccc(C#N)cn3)CC2)C[C@H]1c1ccc(Cl)cc1 [Example 221, [(3S,4R)-4-(4-Chloro-phenyl)-1-(5′-cyano-3,4,5,6-tetrahydro-2H-[1,2′]bipyridinyl-4-carbonyl)-pyrrolidin-3-yl]-methyl-carbamic acid 4-methyl-cyclohexyl ester]
  Ki: 1 nM

## CN(C(=O)Oc1ccc(S(C)(=O)=O)cc1)[C@@H]1CN(C(=O)C2CCN(c3ccc(C#N)cn3)CC2)C[C@H]1c1ccc(Cl)cc1 [Example 224, [(3S,4R)-4-(4-Chloro-phenyl)-1-(5′-cyano-3,4,5,6-tetrahydro-2H-[1,2′]bipyridinyl-4-carbonyl)-pyrrolidin-3-yl]-methyl-carbamic acid 4-methanesulfonyl-phenyl ester]
  Ki: 22.8 nM

## CN(C(=O)Oc1cccc(C#N)c1)[C@@H]1CN(C(=O)C2CCN(c3ccc(C#N)cn3)CC2)C[C@H]1c1ccc(Cl)cc1 [Example 225, [(3S,4R)-4-(4-Chloro-phenyl)-1-(5′-cyano-3,4,5,6-tetrahydro-2H-[1,2′]bipyridinyl-4-carbonyl)-pyrrolidin-3-yl]-methyl-carbamic acid 3-cyano-phenyl ester]
  Ki: 11.2 nM

## CC(OC(=O)N(C)[C@@H]1CN(C(=O)C2CCN(c3ccc(C#N)cn3)CC2)C[C@H]1c1ccc(Cl)cc1)c1ccc(F)cc1 (stereo partly drawn) [Example 226, [(3S,4R)-4-(4-Chloro-phenyl)-1-(5′-cyano-3,4,5,6-tetrahydro-2H-[1,2′]bipyridinyl-4-carbonyl)-pyrrolidin-3-yl]-methyl-carbamic acid 1-(4-fluoro-phenyl)-ethyl ester]
  Ki: 79.2 nM

## CN(C(=O)Oc1ccc(C#N)cc1)[C@@H]1CN(C(=O)C2CCN(c3ccc(C#N)cn3)CC2)C[C@H]1c1ccc(Cl)cc1 [Example 228, [(3S,4R)-4-(4-Chloro-phenyl)-1-(5′-cyano-3,4,5,6-tetrahydro-2H-[1,2′]bipyridinyl-4-carbonyl)-pyrrolidin-3-yl]-methyl-carbamic acid 4-cyano-phenyl ester]
  Ki: 0.8 nM

## Cc1ccccc1OC(=O)N(C)[C@@H]1CN(C(=O)C2CCN(c3ccc(C#N)cn3)CC2)C[C@H]1c1ccc(Cl)cc1 [Example 229, [(3S,4R)-4-(4-Chloro-phenyl)-1-(5′-cyano-3,4,5,6-tetrahydro-2H-[1,2′]bipyridinyl-4-carbonyl)-pyrrolidin-3-yl]-methyl-carbamic acid o-tolyl ester]
  Ki: 16.8 nM

## Cc1cccc(OC(=O)N(C)[C@@H]2CN(C(=O)C3CCN(c4ccc(C#N)cn4)CC3)C[C@H]2c2ccc(Cl)cc2)c1 [Example 230, [(3S,4R)-4-(4-Chloro-phenyl)-1-(5′-cyano-3,4,5,6-tetrahydro-2H-[1,2′]bipyridinyl-4-carbonyl)-pyrrolidin-3-yl]-methyl-carbamic acid m-tolyl ester]
  Ki: 2.7 nM

## CN(C(=O)OCC1CCOCC1)[C@@H]1CN(C(=O)C2CCN(c3ccc(C#N)cn3)CC2)C[C@H]1c1ccc(Cl)cc1 [Example 231, [(3S,4R)-4-(4-Chloro-phenyl)-1-(5′-cyano-3,4,5,6-tetrahydro-2H-[1,2′]bipyridinyl-4-carbonyl)-pyrrolidin-3-yl]-methyl-carbamic acid tetrahydro-pyran-4-ylmethyl ester]
[1]
  Ki: 5.7 nM

## CN(C(=O)OCC1CCCO1)[C@@H]1CN(C(=O)C2CCN(c3ccc(C#N)cn3)CC2)C[C@H]1c1ccc(Cl)cc1 (stereo partly drawn) [Example 232, [(3S,4R)-4-(4-Chloro-phenyl)-1-(5′-cyano-3,4,5,6-tetrahydro-2H-[1,2′]bipyridinyl-4-carbonyl)-pyrrolidin-3-yl]-methyl-carbamic acid tetrahydro-furan-2-ylmethyl ester]
  Ki: 21.8 nM

## CN(C(=O)OCC1CCOC1)[C@@H]1CN(C(=O)C2CCN(c3ccc(C#N)cn3)CC2)C[C@H]1c1ccc(Cl)cc1 (stereo partly drawn) [Example 233, [(3S,4R)-4-(4-Chloro-phenyl)-1-(5′-cyano-3,4,5,6-tetrahydro-2H-[1,2′]bipyridinyl-4-carbonyl)-pyrrolidin-3-yl]-methyl-carbamic acid tetrahydro-furan-3-ylmethyl ester]
  Ki: 6 nM

## CCC(C)(C)OC(=O)N(C)[C@@H]1CN(C(=O)C2CCN(c3ccc(C#N)cn3)CC2)C[C@H]1c1ccc(Cl)cc1 [Example 234, [(3S,4R)-4-(4-Chloro-phenyl)-1-(5′-cyano-3,4,5,6-tetrahydro-2H-[1,2′]bipyridinyl-4-carbonyl)-pyrrolidin-3-yl]-methyl-carbamic acid 1,1-dimethyl-propyl ester]
  Ki: 79.4 nM

## CCC(OC(=O)N(C)[C@@H]1CN(C(=O)C2CCN(c3ccc(C#N)cn3)CC2)C[C@H]1c1ccc(Cl)cc1)c1ccc(F)cc1 (stereo partly drawn) [Example 236, [(3S,4R)-4-(4-Chloro-phenyl)-1-(5′-cyano-3,4,5,6-tetrahydro-2H-[1,2′]bipyridinyl-4-carbonyl)-pyrrolidin-3-yl]-methyl-carbamic acid 1-(4-fluoro-phenyl)-propyl ester]
  Ki: 64.8 nM

## CN(C(=O)Oc1ccc(C#N)cc1F)[C@@H]1CN(C(=O)C2CCN(c3ccc(C#N)cn3)CC2)C[C@H]1c1ccc(Cl)cc1 [Example 237, [(3S,4R)-4-(4-Chloro-phenyl)-1-(5′-cyano-3,4,5,6-tetrahydro-2H-[1,2′]bipyridinyl-4-carbonyl)-pyrrolidin-3-yl]-methyl-carbamic acid 4-cyano-2-fluoro-phenyl ester]
  Ki: 0.4 nM

## COC1CCC(OC(=O)N(C)[C@@H]2CN(C(=O)C3CCN(c4ccc(C#N)cn4)CC3)C[C@H]2c2ccc(Cl)cc2)CC1 (stereo partly drawn) [Example 238, [(3S,4R)-4-(4-Chloro-phenyl)-1-(5′-cyano-3,4,5,6-tetrahydro-2H-[1,2′]bipyridinyl-4-carbonyl)-pyrrolidin-3-yl]-methyl-carbamic acid 4-methoxy-cyclohexyl ester]
  Ki: 48 nM

## CN(C(=O)OC(c1ccc(F)cc1)C1CC1)[C@@H]1CN(C(=O)C2CCN(c3ccc(C#N)cn3)CC2)C[C@H]1c1ccc(Cl)cc1 (stereo partly drawn) [Example 239, [(3S,4R)-4-(4-Chloro-phenyl)-1-(5′-cyano-3,4,5,6-tetrahydro-2H-[1,2′]bipyridinyl-4-carbonyl)-pyrrolidin-3-yl]-methyl-carbamic acid cyclopropyl-(4-fluoro-phenyl)-methyl ester]
  Ki: 61.6 nM

## CN(C(=O)O[C@]1(C(F)(F)F)CC[C@@H](C)CC1)[C@@H]1CN(C(=O)C2CCN(c3ccc(C#N)cn3)CC2)C[C@H]1c1ccc(Cl)cc1 [Example 240, [(3S,4R)-4-(4-Chloro-phenyl)-1-(5′-cyano-3,4,5,6-tetrahydro-2H-[1,2′]bipyridinyl-4-carbonyl)-pyrrolidin-3-yl]-methyl-carbamic acid 4-methyl-1-trifluoromethyl-cyclohexyl ester]
  Ki: 22.8 nM

## CN(C(=O)O[C@]1(C)CC[C@@H](C)CC1)[C@@H]1CN(C(=O)C2CCN(c3ccc(C#N)cn3)CC2)C[C@H]1c1ccc(Cl)cc1 [Example 242, [(3S,4R)-4-(4-Chloro-phenyl)-1-(5′-cyano-3,4,5,6-tetrahydro-2H-[1,2′]bipyridinyl-4-carbonyl)-pyrrolidin-3-yl]-methyl-carbamic acid 1,4-dimethyl-cyclohexyl ester]
[1]
  Ki: 2.7 nM

## CN(C(=O)OC1(C)CCCC1)[C@@H]1CN(C(=O)C2CCN(c3ccc(C#N)cn3)CC2)C[C@H]1c1ccc(Cl)cc1 [Example 243, [(3S,4R)-4-(4-Chloro-phenyl)-1-(5′-cyano-3,4,5,6-tetrahydro-2H-[1,2′]bipyridinyl-4-carbonyl)-pyrrolidin-3-yl]-methyl-carbamic acid 1-methyl-cyclopentyl ester]
[1]
  Ki: 47.2 nM

## CN(C(=O)Oc1ccc(Cl)cn1)[C@@H]1CN(C(=O)C2CCN(c3ccc(C#N)cn3)CC2)C[C@H]1c1ccc(Cl)cc1 [Example 244, [(3S,4R)-4-(4-Chloro-phenyl)-1-(5′-cyano-3,4,5,6-tetrahydro-2H-[1,2′]bipyridinyl-4-carbonyl)-pyrrolidin-3-yl]-methyl-carbamic acid 5-chloro-pyridin-2-yl ester]
  Ki: 20.9 nM

## CN(C(=O)Oc1ccc(C#N)c(F)c1)[C@@H]1CN(C(=O)C2CCN(c3ccc(C#N)cn3)CC2)C[C@H]1c1ccc(Cl)cc1 [Example 245, [(3S,4R)-4-(4-Chloro-phenyl)-1-(5′-cyano-3,4,5,6-tetrahydro-2H-[1,2′]bipyridinyl-4-carbonyl)-pyrrolidin-3-yl]-methyl-carbamic acid 4-cyano-3-fluoro-phenyl ester]
  Ki: 1.1 nM

## CC(=O)N1CCC(C(=O)N2C[C@@H](N(C)C(=O)Oc3ccc(F)cc3)[C@H](c3ccc(Cl)cc3)C2)CC1 [Example 246, [(3S,4R)-1-(1-Acetyl-piperidine-4-carbonyl)-4-(4-chloro-phenyl)-pyrrolidin-3-yl]-methyl-carbamic acid 4-fluoro-phenyl ester]
  Ki: 2.3 nM
